Paper PMC11079024, “Identification of a family of species-selective complex I inhibitors as potential anthelmintics” (Nature Communications, 2024)

System: anthelmintic/nematicide-resistant C. elegans mutant strains
Experiment: microbe, parasite or virus in culture
Source text: In addition to the Caenorhabditis elegans wild-type N2 strain, this work included the following C. elegans strains: CB1003 (kynu-1(e1003) X); anthelmintic-resistant strains—CB3474 (ben-1(e1880) III), CB193 (unc-29(e193) I), HY496 (bre-1(ye4) IV), RB2119 (acr-23(ok2804) V), JD608 (avr-14(ad1302) I; avr-15(ad1051) V; glc-1 (pk54) V), NM1968 (slo-1(js379) V), RP2635 (mev-1(tr355) III); benzimidazole-resistant CRISPR strains—ECA882 (ben-1(ean64) III), ECA917 (ben-1(ean98) III), ECA1075 (ben-1(ean143) III), ECA1080 (ben-1(ean148) III). This work also featured several additional free-living nematode strains: C. briggsae strain AF16, P. pacificus strain PS312, and P. hermaphrodita strain B178. The four CRISPR-generated benzimidazole-resistant C. elegans mutants were generously provided by Prof. Erik Andersen (Johns Hopkins University); PS312 and B178 were generously provided by Prof. Peter Roy (University of Toronto); all other strains were obtained from the Caenorhabditis Genetics Center (CGC, University of Minnesota). All strains were cultured and propagated at 20 °C on NGM (nematode growth medium) agar plates seeded with E. coli OP50 (Stiernagle, 2006)[56].
Liquid development and viability assays were adapted from a previously established chemical screening protocol (Burns et al.)[24]. In brief, a saturated culture of E. coli HB101 was concentrated 2-fold in liquid NGM and 40 μL of this suspension was distributed to each well of a 96-well flat-bottom culture plate. 0.5 μL chemical solution (or DMSO alone) was added to each well (1% DMSO v/v) using either a multi-channel pipette or a pinning tool (V&P Scientific). L1 worms synchronized from an embryo preparation performed the day prior were diluted to a concentration of ~2 worms/μL in M9 buffer; 10 μL worm suspension was then added to each well. Culture plates were sealed with parafilm and placed in a plastic container lined with wet paper towels to prevent evaporation. Containers were then incubated for 6 days at 20 °C with shaking at 165 rpm. Following incubation, 300 μL M9 was added to each well to decrease the turbidity of the HB101-NGM suspension. Single images of each microplate well were then taken on a Nikon Ti Eclipse inverted microscope (Nikon NIS Elements AR). Images were processed using Python scripts to isolate worm-associated pixels from background. Scores of worm development and viability were determined as the sum of worm-associated pixels in each well. Development/viability scores for each well were divided by the development /viability scores for the corresponding DMSO controls, resulting in a relative viability value for each chemical. At least three biological replicates were performed for each dose-response experiment; relative viability values were averaged across replicates.
Supplementary Table 2. Sensitivity of anthelmintic/nematicide-resistant strains to Class A, B, and C
benzimidazole complex I inhibitors.
LC50s were estimated from fitted dose-
response curves; all dose response data are the mean of at least three biological replicates.
Supplementary Table 2. Davie et al.

## COC(=O)Nc1nc2ccc(Sc3ccccc3)cc2[nH]1 [fenbendazole, reference compound]
1 µM, strain CB3474, G104D (ben-1)
  C. elegans L1 relative development & viability (score 0-1 relative to DMSO controls): 1.000
1 µM, strain ECA917, F200Y (ben-1)
  C. elegans L1 relative development & viability (score 0-1 relative to DMSO controls): 1.000
1 µM, strain ECA1075, F167Y (ben-1)
  C. elegans L1 relative development & viability (score 0-1 relative to DMSO controls): 1.000
1 µM, strain ECA1080, E198A (ben-1)
  C. elegans L1 relative development & viability (score 0-1 relative to DMSO controls): 1.000
2 µM, strain CB3474, G104D (ben-1)
  C. elegans L1 relative development & viability (score 0-1 relative to DMSO controls): 1.000
2 µM, strain ECA917, F200Y (ben-1)
  C. elegans L1 relative development & viability (score 0-1 relative to DMSO controls): 1.000
2 µM, strain ECA1075, F167Y (ben-1)
  C. elegans L1 relative development & viability (score 0-1 relative to DMSO controls): 1.000
2 µM, strain ECA1080, E198A (ben-1)
  C. elegans L1 relative development & viability (score 0-1 relative to DMSO controls): 1.000
3.9 µM, strain CB3474, G104D (ben-1)
  C. elegans L1 relative development & viability (score 0-1 relative to DMSO controls): 1.000
3.9 µM, strain ECA917, F200Y (ben-1)
  C. elegans L1 relative development & viability (score 0-1 relative to DMSO controls): 1.000
3.9 µM, strain ECA1075, F167Y (ben-1)
  C. elegans L1 relative development & viability (score 0-1 relative to DMSO controls): 1.000
3.9 µM, strain ECA1080, E198A (ben-1)
  C. elegans L1 relative development & viability (score 0-1 relative to DMSO controls): 1.000
15.6 µM, strain CB3474, G104D (ben-1)
  C. elegans L1 relative development & viability (score 0-1 relative to DMSO controls): 1.000
15.6 µM, strain ECA917, F200Y (ben-1)
  C. elegans L1 relative development & viability (score 0-1 relative to DMSO controls): 1.000
15.6 µM, strain ECA1075, F167Y (ben-1)
  C. elegans L1 relative development & viability (score 0-1 relative to DMSO controls): 1.000
15.6 µM, strain ECA1080, E198A (ben-1)
  C. elegans L1 relative development & viability (score 0-1 relative to DMSO controls): 0.957
31.3 µM, strain CB3474, G104D (ben-1)
  C. elegans L1 relative development & viability (score 0-1 relative to DMSO controls): 1.000
31.3 µM, strain ECA917, F200Y (ben-1)
  C. elegans L1 relative development & viability (score 0-1 relative to DMSO controls): 1.000
31.3 µM, strain ECA1075, F167Y (ben-1)
  C. elegans L1 relative development & viability (score 0-1 relative to DMSO controls): 1.000
31.3 µM, strain ECA1080, E198A (ben-1)
  C. elegans L1 relative development & viability (score 0-1 relative to DMSO controls): 1.000
62.5 µM, strain CB3474, G104D (ben-1)
  C. elegans L1 relative development & viability (score 0-1 relative to DMSO controls): 0.845
62.5 µM, strain ECA917, F200Y (ben-1)
  C. elegans L1 relative development & viability (score 0-1 relative to DMSO controls): 1.000
62.5 µM, strain ECA1075, F167Y (ben-1)
  C. elegans L1 relative development & viability (score 0-1 relative to DMSO controls): 0.934
62.5 µM, strain ECA1080, E198A (ben-1)
  C. elegans L1 relative development & viability (score 0-1 relative to DMSO controls): 1.000
125 µM, strain CB3474, G104D (ben-1)
  C. elegans L1 relative development & viability (score 0-1 relative to DMSO controls): 0.790
125 µM, strain ECA917, F200Y (ben-1)
  C. elegans L1 relative development & viability (score 0-1 relative to DMSO controls): 0.784
125 µM, strain ECA1075, F167Y (ben-1)
  C. elegans L1 relative development & viability (score 0-1 relative to DMSO controls): 0.665
125 µM, strain ECA1080, E198A (ben-1)
  C. elegans L1 relative development & viability (score 0-1 relative to DMSO controls): 0.759
250 µM, strain CB3474, G104D (ben-1)
  C. elegans L1 relative development & viability (score 0-1 relative to DMSO controls): 0.720
250 µM, strain ECA917, F200Y (ben-1)
  C. elegans L1 relative development & viability (score 0-1 relative to DMSO controls): 0.835
250 µM, strain ECA1075, F167Y (ben-1)
  C. elegans L1 relative development & viability (score 0-1 relative to DMSO controls): 0.796
250 µM, strain ECA1080, E198A (ben-1)
  C. elegans L1 relative development & viability (score 0-1 relative to DMSO controls): 0.686
500 µM, strain CB3474, G104D (ben-1)
  C. elegans L1 relative development & viability (score 0-1 relative to DMSO controls): 0.538
500 µM, strain ECA917, F200Y (ben-1)
  C. elegans L1 relative development & viability (score 0-1 relative to DMSO controls): 0.716
500 µM, strain ECA1075, F167Y (ben-1)
  C. elegans L1 relative development & viability (score 0-1 relative to DMSO controls): 0.599
500 µM, strain ECA1080, E198A (ben-1)
  C. elegans L1 relative development & viability (score 0-1 relative to DMSO controls): 0.597
CB3474 G104D (ben-1), 1 µM, score 0-1 relative to DMSO, values >1 set to 1
  C. elegans L1 relative development & viability: 1.000
CB3474 G104D (ben-1), 2 µM, score 0-1 relative to DMSO, values >1 set to 1
  C. elegans L1 relative development & viability: 1.000
CB3474 G104D (ben-1), 3.9 µM, score 0-1 relative to DMSO, values >1 set to 1
  C. elegans L1 relative development & viability: 1.000
CB3474 G104D (ben-1), 15.6 µM, score 0-1 relative to DMSO, values >1 set to 1
  C. elegans L1 relative development & viability: 1.000
CB3474 G104D (ben-1), 31.3 µM, score 0-1 relative to DMSO, values >1 set to 1
  C. elegans L1 relative development & viability: 1.000
CB3474 G104D (ben-1), 62.5 µM, […]
  C. elegans L1 relative development & viability: 0.845
CB3474 G104D (ben-1), 125 µM, […]
  C. elegans L1 relative development & viability: 0.790
CB3474 G104D (ben-1), 250 µM, […]
  C. elegans L1 relative development & viability: 0.720
CB3474 G104D (ben-1), 500 µM, […]
  C. elegans L1 relative development & viability: 0.538
ECA917 F200Y (ben-1), 1 µM, score 0-1 relative to DMSO, values >1 set to 1
  C. elegans L1 relative development & viability: 1.000
ECA917 F200Y (ben-1), 2 µM, score 0-1 relative to DMSO, values >1 set to 1
  C. elegans L1 relative development & viability: 1.000
ECA917 F200Y (ben-1), 3.9 µM, score 0-1 relative to DMSO, values >1 set to 1
  C. elegans L1 relative development & viability: 1.000
ECA917 F200Y (ben-1), 15.6 µM, score 0-1 relative to DMSO, values >1 set to 1
  C. elegans L1 relative development & viability: 1.000
ECA917 F200Y (ben-1), 31.3 µM, score 0-1 relative to DMSO, values >1 set to 1
  C. elegans L1 relative development & viability: 1.000
ECA917 F200Y (ben-1), 62.5 µM, score 0-1 relative to DMSO, values >1 set to 1
  C. elegans L1 relative development & viability: 1.000
ECA917 F200Y (ben-1), 125 µM, […]
  C. elegans L1 relative development & viability: 0.784
ECA917 F200Y (ben-1), 250 µM, […]
  C. elegans L1 relative development & viability: 0.835
ECA917 F200Y (ben-1), 500 µM, […]
  C. elegans L1 relative development & viability: 0.716
ECA1075 F167Y (ben-1), 1 µM, score 0-1 relative to DMSO, values >1 set to 1
  C. elegans L1 relative development & viability: 1.000
ECA1075 F167Y (ben-1), 2 µM, score 0-1 relative to DMSO, values >1 set to 1
  C. elegans L1 relative development & viability: 1.000
ECA1075 F167Y (ben-1), 3.9 µM, score 0-1 relative to DMSO, values >1 set to 1
  C. elegans L1 relative development & viability: 1.000
ECA1075 F167Y (ben-1), 15.6 µM, score 0-1 relative to DMSO, values >1 set to 1
  C. elegans L1 relative development & viability: 1.000
ECA1075 F167Y (ben-1), 31.3 µM, score 0-1 relative to DMSO, values >1 set to 1
  C. elegans L1 relative development & viability: 1.000
ECA1075 F167Y (ben-1), 62.5 µM, […]
  C. elegans L1 relative development & viability: 0.934
ECA1075 F167Y (ben-1), 125 µM, […]
  C. elegans L1 relative development & viability: 0.665
ECA1075 F167Y (ben-1), 250 µM, […]
  C. elegans L1 relative development & viability: 0.796
ECA1075 F167Y (ben-1), 500 µM, […]
  C. elegans L1 relative development & viability: 0.599
ECA1080 E198A (ben-1), 1 µM, score 0-1 relative to DMSO, values >1 set to 1
  C. elegans L1 relative development & viability: 1.000
ECA1080 E198A (ben-1), 2 µM, score 0-1 relative to DMSO, values >1 set to 1
  C. elegans L1 relative development & viability: 1.000
ECA1080 E198A (ben-1), 3.9 µM, score 0-1 relative to DMSO, values >1 set to 1
  C. elegans L1 relative development & viability: 1.000
ECA1080 E198A (ben-1), 15.6 µM, […]
  C. elegans L1 relative development & viability: 0.957
ECA1080 E198A (ben-1), 31.3 µM, score 0-1 relative to DMSO, values >1 set to 1
  C. elegans L1 relative development & viability: 1.000
ECA1080 E198A (ben-1), 62.5 µM, score 0-1 relative to DMSO, values >1 set to 1
  C. elegans L1 relative development & viability: 1.000
ECA1080 E198A (ben-1), 125 µM, […]
  C. elegans L1 relative development & viability: 0.759
ECA1080 E198A (ben-1), 250 µM, […]
  C. elegans L1 relative development & viability: 0.686
ECA1080 E198A (ben-1), 500 µM, […]
  C. elegans L1 relative development & viability: 0.597
